{"source": "paper PMC9457533", "about": "“Study on Metronidazole Acid-Base Behavior and Speciation with Ca^2+ for Potential Applications in Natural Waters” (Molecules, 2022)", "key": {"[1]": {"test": "UV-Vis spectrophotometric titrations: formation constant of Ca^2+-MNZ species", "type": "physicochemical", "conditions": "Ca + L + H = CaLH; t = 25 °C, I = 0.15 mol L^-1", "experimental": "As widely reported in the literature, the high ability of L to absorb in the UV range has often been used to determine quantitatively and qualitatively this antibiotic in waters. Various spectrophotometric titrations on solutions containing L and M-L mixtures were performed to investigate L spectral behavior and to confirm the protonation and formation constants values as well as the speciation model obtained by potentiometry, as already shown with other systems.\nThe spectrophotometric titrations were performed with a Varian Cary 50 UV-Vis spectrophotometer characterized by an optical fiber with a fixed 1 cm path length. The system was interfaced to a PC by the Varian Cary WinUV software. For all titrations, a Thermo-Fisher glass electrode was also used to record simultaneously the couple of data absorbance (A) and e.m.f. (mV) vs. volume of titrant (mL), for each titration point. The analyses were carried out in a thermostated cell, in which N2 was bubbled in solution to avoid CO2 and O2.\nThe protonation constant of MNZ (L), formation constant values of Ca^2+(M)-MNZ (L), and titration parameters (analytical concentration of the reagents, standard potential E^0, junction potential) were determined by using BSTAC and STACO programs. […] The speciation diagrams and the formation percentage of the species are determined by the Hyss program."}, "[2]": {"test": "Dependence of Ca^2+-MNZ formation constant on temperature (van't Hoff equation), thermodynamic parameters", "type": "physicochemical", "conditions": "Ca + LH = CaLH; t = 298.15 K, I = 0.15 mol L^-1 NaCl", "experimental": "The protonation and formation constants values acquired at the three different temperatures of 15, 25, and 37 °C, listed in Table 1, were used to study their dependence on temperature, as already shown for several systems. The data obtained by the potentiometric measurements were analyzed using the following van’t Hoff equation:logβT = logβθ + ΔH^0(1/θ − 1/T) R ln 10(6) where logβT is the stability constant at a certain temperature (expressed in kelvin), while logβθ is the stability constant at t = 298.15 K, and R is the universal gas constant expressed as 8.314 J K^−1 mol^−1. Using the equation just reported, it was possible to calculate the protonation and formation enthalpies change values, together with Gibbs free energy and entropy changes.\n(§1) The protonation constant of MNZ (L), formation constant values of Ca^2+(M)-MNZ (L), and titration parameters (analytical concentration of the reagents, standard potential E^0, junction potential) were determined by using BSTAC and STACO programs. LIANA program has provided the parameters characterizing the dependence of the protonation and formation constant values on the temperature and ionic strength. More details on software are present in ref. [59]. ^1H NMR data were processed by HypNMR software, which allows for calculating protonation and formation constant values and the individual chemical shift of species through the observed signals and assuming fast mutual exchange in the NMR time scale. UV-Vis data are processed by the HypSpec program, which allows refining of the protonation and formation constant as well as the molar absorption coefficient values (ε) of the species. The speciation diagrams and the formation percentage of the species are determined by the Hyss program."}, "[3]": {"test": "Distribution diagram of Ca^2+-MNZ system vs pH", "type": "physicochemical", "conditions": "I = 0.15 mol L^-1, CL = 2 mmol L^-1, CCa = 1 mmol L^-1, 4 ≤ pH ≤ 10", "experimental": "as §1"}, "[4]": {"set-up": "method as in earlier work", "conditions": "t = 25 °C, I = 0.5 mol L^-1 in KCl, potentiometry; cited from earlier work"}}, "note": "Values joined by “and” are separate entries in the source; they are usually repeats but may differ in a detail not shown here. Equal values may be shown once."}
{"smiles": "Cc1ncc([N+](=O)[O-])n1CCO", "note": "[MNZ, 2-Methyl-5-nitroimidazole-1-ethanol]", "values": [{"measurement": "logβ UV", "setting": "[1]", "value": "14.17(2)"}, {"measurement": "TΔS", "setting": "[2]", "value": -4.78, "unit": "kcal/mol"}, {"measurement": "ΔG", "setting": "[2]", "value": -3.39, "unit": "kcal/mol"}, {"measurement": "ΔH", "setting": "[2]", "value": "-34 kJ mol^-1 and −34(8) kJ mol^-1"}, {"measurement": "maximum metal fraction of CaLH species", "setting": "[3]; t = 25 °C", "value": 0.4}, {"measurement": "maximum metal fraction of CaLH species", "setting": "[3]; t = 37 °C", "value": "over 0.1"}, {"measurement": "logK2 (protonation constant)", "setting": "[4]", "value": 2.68}]}
